{
  "source": "paper PMC3034256",
  "about": "(Chemistry & biology, 2011)",
  "key": {"Jurkat T cells [1]": {"tested_on": "Jurkat T cells", "assay": "TCR-mediated ERK1/2 activation in Jurkat T cells", "format": "cell-based", "settings": "2 h pretreatment (2 µM), 10 µg/mL anti-CD3"}, "panel of PTPs": {"tested_on": "panel of PTPs", "assay": "Screen against a panel of PTPs at 10 µM", "format": "biochemical", "settings": "10 µM compound, pNPP, pH 7, 25 °C"}, "Jurkat T cells [2]": {"tested_on": "Jurkat T cells", "assay": "TCR-mediated tyrosine phosphorylation in Jurkat T cells", "format": "cell-based", "settings": "2 h pretreatment (2 µM; TTN 2–4 µM), 10 µg/mL anti-CD3"}},
  "data": [
    {"smiles": "CO[C@H]([C@H](O)CC(=O)[C@@H](C)[C@@H](O)CC[C@@H](C)[C@@H]1O[C@]2(CC[C@@H](C)[C@H](CC[C@H](C)C(C)=O)O2)CC[C@@H]1C)[C@H](OC(=O)C[C@@H](O)C1=C(C)C(=O)OC1=O)C(C)C", "note": "[TTM, tautomycin, reference compound]", "values": [
      {"measurement": "effect on TCR-mediated ERK1/2 activation", "setting": "Jurkat T cells [1]", "result": "no appreciable change"},
      {"measurement": "inhibitory activity against the panel of PTPs", "setting": "panel of PTPs", "result": "neither TTM nor its analogs exhibited any inhibitory activity"},
      {"measurement": "effect on TCR-mediated tyrosine phosphorylation", "setting": "Jurkat T cells [2]", "result": "had no effect"}
    ]}
  ]
}
